Entries after “also recorded” stand apart in the source; their conditions may differ.

Assay type in all cases: in vivo, mice
The subject of experiment [1] is CD45^+ splenocytes. The experiment is described as follows: CD45+ splenocyte counts by FACS after burn injury. As to conditions: VX-765 100 mg kg^−1 i.p. 1 h prior to burn injury vs vehicle; normalized to sham. As to the method: (§1) Male C57Bl/6J mice (Charles River, Freiburg, Germany), aged 7-8 weeks, received a 35% total body surface area (TBSA) full thickness scald burn to the back through 10 seconds immersion in 98° C. water under deep anesthesia with 2% isoflurane and analgesia with 0.1 mg kg^−1 buprenorphine. Immediately after burn injury, the mice were resuscitated with 2 ml of lactated Ringer's solution (Baxter, Unterschleißheim, Germany) via i.p. injection as previously described (Hundeshagen et al., 2018; Bohannon et al., 2008; Toliver-Kinsky et al., 2005). Animals in the sham burn group were subjected to identical treatment except for water temperature during immersion being 36 C. Following burn injury or sham burn, mice were singly housed at room temperature (21° C.). […]
(§2) The anti-mouse antibodies listed below (see Table 1) were used for surface marker staining of CD45^+ leukocytes, CD45^+CD11b^+ monocytes (+FasL^+ expression), CD3^+ T cells, CD3^+CD4^+ Thelper cells, CD3^+CD8^+ Tcytotox cells and CD19^+ B cells (for representative gating strategy, see FIG. 10A). […] Flow cytometric data was acquired using a BD FACSverse flow cytometer (BD Biosciences) and analyzed using FlowJo software (Treestar).

The test system of experiment [2] is splenic CD3^+ T cells. Kind of experiment: Splenic T cell counts by FACS after experimental stroke. As to conditions: VX-765 100 mg kg^−1 i.p. 1 h prior to stroke vs vehicle; normalized to sham. The text has this: Mice were anaesthetized with isoflurane delivered in a mixture of 30% O2 and 70% N2O. An incision was made between the ear and the eye in order to expose the temporal bone. Mice were placed in supine position, and a laser Doppler probe was affixed to the skull above the middle cerebral artery (MCA) territory. The common carotid artery and left external carotid artery were exposed via midline incision and further isolated and ligated. A 2-mm silicon-coated filament (Doccol) was inserted into the internal carotid artery, advanced gently to the MCA until resistance was felt, and occlusion was confirmed by a corresponding decrease in blood flow (i.e., a decrease in the laser Doppler flow signal by 80%. After 60 minutes of occlusion, the animals were re-anesthetized, and the filament was removed. After recovery, the mice were kept in their home cage with ad libitum access to water and food. Sham-operated mice received the same surgical procedure, but the filament was […] in lieu of being advanced to the MCA. Body temperature was maintained at 37° C. throughout surgery in all mice via feedback-controlled heating pad. The overall mortality rate of animals subjected to MCA occlusion was approximately 20%. All animals in the sham group survived the procedure. Exclusion criteria: 1. Insufficient MCA occlusion (a reduction in blood flow to […] of the baseline value). 2. Death during the surgery. 3. Lack of brain ischemia as quantified post-mortem by histological analysis.
Anti-IL1β: Mice received two injections of antagonizing anti-IL-1β in sterile saline (clone: B122, InVivoMab, BioXcell, US), 1 hour prior to and 1 hour after surgery. Anti-IL-1β or the corresponding IgG control (Armenian hamster IgG, InVivoMab, BioXcell, US) was injected i.p. at a dose of 4 mg kg^−1 body weight in a final volume of 200 μl.
Anti-FasL: Mice received two injections of antagonizing anti-FasL in sterile saline (clone: MFL3, InVivoMab, BioXcell, US), 1 hour prior to and 1 hour after surgery. […]
On the technique in general: Flow cytometry measures light scatter and fluorescence of single cells or particles in a stream.

For experiment [3], the system named is K. pneumoniae. The experiment is described as follows: Post-stroke intranasal bacterial infection, CFU burden in lung. As to conditions: VX765 vs control; 2×10^5 CFU K. pneumoniae intranasally 12 h after stroke; CFU 14 h later.
Experiment [4] has as its system S. pneumoniae. The experiment is described as follows: Post-stroke intranasal bacterial infection, CFU burden in trachea. As to conditions: VX765 vs control; 10^6 CFU S. pneumoniae intranasally 12 h after stroke; CFU 14 h later. The text has this:
(§3) Mice were anaesthetized with isoflurane delivered in a mixture of 30% O2 and 70% N2O. An incision was made between the ear and the eye in order to expose the temporal bone. Mice were placed in supine position, and a laser Doppler probe was affixed to the skull above the middle cerebral artery (MCA) territory. The common carotid artery and left external carotid artery were exposed via midline incision and further isolated and ligated. […] Lack of brain ischemia as quantified post-mortem by histological analysis. […]
S. pneumoniae TIGR4, an encapsulated strain of serotype 4, was grown overnight on Columbia blood agar plates (37° C., 5% CO2), single colonies were cultured in Todd-Hewitt broth with 1% yeast extract to mid-logarithmic phase (OD600 nm: 0.35), washed, and diluted in sterile PBS to the desired concentration. […] Serial dilutions of lung and tracheal tissue homogenates were plated onto blood agar plates and CFU were determined after 16 h of incubation.

Experiment [5] has as its system CD45^+ splenocytes. The experiment is described as follows: CD45+ splenocyte counts (spleen cellularity) by FACS after experimental stroke. As to conditions: VX-765 100 mg kg^−1 i.p. 1 h prior to stroke vs vehicle; normalized to sham.
Text: as §3, §2

For experiment [6], the system named is splenic CD3^+ T cells. Kind of experiment: Splenic T cell counts by FACS after burn injury. As to conditions: VX-765 100 mg kg^−1 i.p. 1 h prior to burn injury vs vehicle; normalized to sham. As to the method: as §1, §2
Experiment [7] is described as follows: Infarct volumetry after stroke. As to conditions: VX-765 vs control treatment; 18 h after stroke.
Text: as §3
Mice were euthanized by overdose of ketamine-xylazine and perfused intracardially with normal saline. […] Infarct area of each section was assessed by ImageJ software (NIH). […] The total infarct volume was determined by integrating measured areas and distances between sections.

Consider `CCO[C@@H]1OC(=O)C[C@@H]1NC(=O)[C@@H]1CCCN1C(=O)[C@@H](NC(=O)c1ccc(N)c(Cl)c1)C(C)(C)C` [VX-765, Belnacasan], for which the “overall CD45+ splenocyte counts (spleen cellularity)” value in experiment [1] was “improved T cell survival and spleen cellularity; also recorded: improved survival after VX-765 treatment compared to control”; in experiment [5], “improved T cell survival and spleen cellularity; also recorded: improved survival after VX-765 treatment compared to control”. The “splenic CD3+ T cell counts (survival)” value in experiment [2] and in experiment [6] was “improved T cell survival; also recorded: improved survival after VX-765 treatment compared to control” throughout. The “bacterial load (CFU) in lung” value in experiment [3] is listed as “reduced post-injury bacterial load comparable to sham-operated group”. Further, the “bacterial load (CFU) in trachea” value in experiment [4] is “reduced post-injury bacterial load comparable to sham-operated group”. For the same compound, the “infarct volume (primary lesion size)” value in experiment [7] is “neither genetic nor pharmacological caspase-1 deficiency had a significant effect on the primary lesion size; also recorded: No significant difference in infarct volume between groups”.

The values are drawn from patent US20230241185A1, “COMPOSITION COMPRISING A DNA-DEGRADING ENZYME FOR USE IN A METHOD FOR THE TREATMENT OF IMMUNOSUPPRESSION AFTER ACUTE TISSUE INJURY” (Klinikum der Universität München, priority 2020, published 2023).
